Laboratory results from PubChem BioAssay AID248 (DTP/NCI, 2004).
Values joined by “and” are separate entries in the source; they are usually repeats but may differ in a detail not shown here. Equal entries are not always repeated. Toxic doses and inconclusive results are not listed. Cut-off read from the data, not from the text of the source: active = T/C of 150% or more; inactive = T/C below 125%.

Test system: L1210 leukemia ip in BDF1 mice, survival T/C
Experiment: NCI In Vivo Anticancer Drug Screen. Data for tumor model L1210 Leukemia (intraperitoneal) in B6D2F1 (BDF1) mice
Settings: endpoint: mean survival time, higher = longer survival
In short: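 Read-out is survival time, reported as the treated-group measurement over the vehicle-control measurement.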

[1] = dose: 25.0 mg/kg/injection, schedule: Q01DX009 (ip), vehicle: saline with Tween-80
[2] = dose: 50.0 mg/kg/injection, schedule: Q01DX009 (ip), vehicle: saline with Tween-80
[3] = dose: 100.0 mg/kg/injection, schedule: Q01DX009 (ip), vehicle: saline with Tween-80
[4] = dose: 200.0 mg/kg/injection, schedule: Q01DX009 (ip), vehicle: saline with Tween-80
[5] = dose: 50.0 mg/kg/injection, schedule: Q01DX009 (ip), vehicle: Klucel (hydroxypropylcellulose) (HPC)
[6] = dose: 100.0 mg/kg/injection, schedule: Q04DX002 (ip), vehicle: saline with Tween-80
[7] = dose: 200.0 mg/kg/injection, schedule: Q04DX002 (ip), vehicle: saline with Tween-80
[8] = dose: 400.0 mg/kg/injection, schedule: Q01DX009 (ip), vehicle: saline with Tween-80
[9] = dose: 50.0 mg/kg/injection, schedule: Q04DX003 (ip), vehicle: saline with Tween-80
[10] = dose: 100.0 mg/kg/injection, schedule: Q04DX003 (ip), vehicle: saline with Tween-80
[11] = dose: 200.0 mg/kg/injection, schedule: Q04DX003 (ip), vehicle: saline with Tween-80
[12] = dose: 400.0 mg/kg/injection, schedule: Q04DX003 (ip), vehicle: saline with Tween-80
[13] = dose: 100.0 mg/kg/injection, schedule: Q04DX003 (ip), vehicle: saline
[14] = dose: 200.0 mg/kg/injection, schedule: Q04DX003 (ip), vehicle: saline
[15] = dose: 100.0 mg/kg/injection, schedule: Q01DX001 (ip), vehicle: saline
[16] = dose: 200.0 mg/kg/injection, schedule: Q01DX001 (ip), vehicle: saline
[17] = dose: 400.0 mg/kg/injection, schedule: Q01DX001 (ip), vehicle: saline
[18] = dose: 100.0 mg/kg/injection, schedule: Q01DX001 (ip), vehicle: Klucel (hydroxypropylcellulose) (HPC)
[19] = dose: 100.0 mg/kg/injection, schedule: Q04DX002 (ip), vehicle: saline
[20] = dose: 200.0 mg/kg/injection, schedule: Q01DX001 (ip), vehicle: Klucel (hydroxypropylcellulose) (HPC)
[21] = dose: 400.0 mg/kg/injection, schedule: Q01DX001 (ip), vehicle: Klucel (hydroxypropylcellulose) (HPC)
[22] = dose: 100.0 mg/kg/injection, schedule: Q04DX003 (ip), vehicle: Klucel (hydroxypropylcellulose) (HPC)
[23] = dose: 200.0 mg/kg/injection, schedule: Q04DX003 (ip), vehicle: Klucel (hydroxypropylcellulose) (HPC)
[24] = dose: 400.0 mg/kg/injection, schedule: Q04DX003 (ip), vehicle: Klucel (hydroxypropylcellulose) (HPC)

Measured: T/C

C1=C\C2CC2CCCC/1 (centres undefined)
inactive: dose: 12.5 mg/kg/injection, schedule: Q01DX005 (ip), vehicle: saline with Tween-80 86 % of control | dose: 25.0 mg/kg/injection, schedule: Q01DX005 (ip), vehicle: saline with Tween-80 96 % of control | [1] 98 % of control | dose: 50.0 mg/kg/injection, schedule: Q01DX005 (ip), vehicle: saline with Tween-80 89 % of control | [2] 94 % of control | [3] 102 % of control

O/N=C1\CC(c2ccccc2)(c2ccccc2)c2cc(-c3ccccc3)c(-c3ccccc3)cc21
inactive: [2] 97 % of control | [3] 104 % of control | [4] 97 % of control

N#CC1=C(C#N)C(=O)C(c2ccccc2)=C(c2ccccc2)C1=O
inactive: dose: 5.0 mg/kg/injection, schedule: Q01DX001 (ip), vehicle: saline 97 % of control | dose: 10.0 mg/kg/injection, schedule: Q01DX001 (ip), vehicle: saline 97 % of control | dose: 20.0 mg/kg/injection, schedule: Q01DX001 (ip), vehicle: saline 101 % of control

CCN(CC)CCC(C#N)(CC=C(C)C)c1cccc2ccccc12 (centres undefined)
inactive: dose: 12.5 mg/kg/injection, schedule: Q01DX009 (ip), vehicle: Klucel (hydroxypropylcellulose) (HPC) 100 % of control | dose: 25.0 mg/kg/injection, schedule: Q01DX009 (ip), vehicle: Klucel (hydroxypropylcellulose) (HPC) 110 % of control | [5] 97 % of control

COc1ccc(/C=C/C(=O)O)cc1
inactive: [3] 100 % of control | [6] 88 % of control | [4] 107 % of control | [7] 98 % of control | [8] 97 % of control | dose: 400.0 mg/kg/injection, schedule: Q04DX002 (ip), vehicle: saline with Tween-80 88 % of control

CCOC(=O)COc1c(C)cccc1Cl
inactive: [6] 111 % of control | [7] 114 % of control

CC1CC(C)(C)N=C(CCC2CCCC2=O)O1 (centres undefined)
inactive: [2] 104 % of control | [9] 95 % of control | [3] 98 % of control | [10] 91 % of control | [4] 100 % of control | [11] 96 % of control | [8] 100 % of control | [12] 91 % of control

COc1c(C)c(C)c(OC(C)=O)c(C)c1Br
inactive: [10] 96 % of control | [11] 89 % of control | [12] 91 % of control

CN(C)CCOc1cccc(OCCN(C)C)n1
inactive: dose: 12.5 mg/kg/injection, schedule: Q01DX009 (ip), vehicle: saline with Tween-80 104 % of control | [1] 103 % of control | dose: 25.0 mg/kg/injection, schedule: Q04DX003 (ip), vehicle: saline with Tween-80 96 % of control | [2] 103 % of control | [9] 96 % of control | [10] 100 % of control

NOCc1csc(Nc2ccccc2)n1
inactive: [13] 100 % of control | [14] 88 % of control

O=C(O)c1cc(Br)c(C(=O)O)cc1Br
inactive: [15] 100 % of control | [16] 102 % of control | [17] 96 % of control

O=C(O)C(c1ccccc1)c1ccccc1
inactive: [18] 97 % of control | [19] 97 % of control | [20] 101 % of control | dose: 200.0 mg/kg/injection, schedule: Q04DX002 (ip), vehicle: saline 97 % of control | [21] 109 % of control | dose: 400.0 mg/kg/injection, schedule: Q04DX002 (ip), vehicle: saline 87 % of control

O=[N+]([O-])c1ccc(N=Cc2ccccc2)cc1
inactive: [22] 91 % of control | [23] 96 % of control | [24] 98 % of control

NC(=O)CC[n+]1ccccc1
inactive: dose: 12.5 mg/kg/injection, schedule: Q01DX009 (ip), vehicle: saline 97 % of control | dose: 25.0 mg/kg/injection, schedule: Q01DX009 (ip), vehicle: saline 93 % of control | dose: 50.0 mg/kg/injection, schedule: Q01DX009 (ip), vehicle: saline 96 % of control | dose: 50.0 mg/kg/injection, schedule: Q04DX003 (ip), vehicle: saline 105 % of control

O=C1NC(=O)C2CC=CCC12 (centres undefined)
inactive: [10] 101 % of control | [11] 106 % of control | [12] 106 % of control

Oc1ccc2[nH]c3c(c2c1)C[P+](Cc1cccc2ccccc12)(c1ccccc1)CC3 (centres undefined)
inactive: [18] 98 % of control | [20] 93 % of control | [21] 96 % of control

CN(CC(=O)O)Cc1ccccc1
inactive: dose: 100.0 mg/kg/injection, schedule: Q01DX009 (ip), vehicle: saline 93 % of control | [13] 104 % of control | dose: 200.0 mg/kg/injection, schedule: Q01DX009 (ip), vehicle: saline 88 % of control | [14] 109 % of control | dose: 400.0 mg/kg/injection, schedule: Q01DX009 (ip), vehicle: saline 93 % of control | dose: 400.0 mg/kg/injection, schedule: Q04DX003 (ip), vehicle: saline 102 % of control

CCN(O)C(N)=O
inactive: dose: 34.5 mg/kg/injection, schedule: Q01DX009 (ip), vehicle: saline 107 % of control | dose: 52.0 mg/kg/injection, schedule: Q01DX009 (ip), vehicle: saline 111 % of control | dose: 62.0 mg/kg/injection, schedule: Q03HX024 (ip), vehicle: saline 101 % of control | dose: 78.0 mg/kg/injection, schedule: Q01DX009 (ip), vehicle: saline 113 % of control | dose: 117.0 mg/kg/injection, schedule: Q01DX009 (ip), vehicle: saline 110 % of control and 122 % of control (2×) | dose: 125.0 mg/kg/injection, schedule: Q03HX024 (ip), vehicle: saline 98 % of control | dose: 178.0 mg/kg/injection, schedule: Q01DX009 (ip), vehicle: saline 112 % of control
active: dose: 600.0 mg/kg/injection, schedule: Q01DX009 (ip), vehicle: saline 166 % of control and 167 % of control

O=C(CC(O)(C(F)(F)F)C(F)(F)F)c1ccc([N+](=O)[O-])cc1
inactive: dose: 50.0 mg/kg/injection, schedule: Q04DX003 (ip), vehicle: other 102 % of control | dose: 100.0 mg/kg/injection, schedule: Q04DX003 (ip), vehicle: other 100 % of control | dose: 200.0 mg/kg/injection, schedule: Q04DX003 (ip), vehicle: other 100 % of control | dose: 400.0 mg/kg/injection, schedule: Q04DX003 (ip), vehicle: other 104 % of control

N#CCC(C#N)N1CCOCC1 (centres undefined)
inactive: [1] 92 % of control | [2] 104 % of control | [3] 93 % of control | [10] 97 % of control

c1cc2c(c(OCC3=NCCN3)c1)CCCC2
inactive: [19] 94 % of control

CC1=C2CC(C)(C)/C=C\C(=O)/C(C)=C\C3=C[C@H](C)C[C@]3(O2)C1=O
inactive: dose: 11.0 mg/kg/injection, schedule: Q01DX009 (ip), vehicle: saline 112 % of control | dose: 16.0 mg/kg/injection, schedule: Q01DX009 (ip), vehicle: saline 106 % of control | dose: 24.0 mg/kg/injection, schedule: Q01DX009 (ip), vehicle: saline 116 % of control

O=C(O)CCc1nc2ccccc2c(=O)[nH]1
inactive: [5] 100 % of control | dose: 100.0 mg/kg/injection, schedule: Q01DX009 (ip), vehicle: Klucel (hydroxypropylcellulose) (HPC) 100 % of control | dose: 200.0 mg/kg/injection, schedule: Q01DX009 (ip), vehicle: Klucel (hydroxypropylcellulose) (HPC) 100 % of control

Nc1ccc(OCc2ccc(C(=O)Nc3cccc(S(=O)(=O)F)c3)cc2)c(Cl)c1
inactive: [22] 100 % of control | [23] 108 % of control | [24] 96 % of control

O=C(NN=c1c2ccccc2sc2ccccc12)c1cccc2ccccc12
inactive: [15] 103 % of control | [16] 105 % of control | [17] 97 % of control
